{"source": "patent US20120232107A1", "about": "“NON-PEPTIDE ANTAGONISTS OF GASTRIN RELEASING PEPTIDE” (The Government of the United States of America as …, priority 2003, published 2012)", "key": {"GRP": {"biological_target": "T1, GRP (Homo sapiens, UniProt P07492)", "T1 construct": "GRP is a 27 amino acid peptide; purchased Peninsula (S. Carlos, Calif.); host or cells: synthetic peptide", "T1 sequence (P07492 24-50 limits assumed)": "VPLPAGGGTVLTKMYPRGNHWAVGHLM", "assay": "IP3 analysis for GRP in H-1299 cells", "type": "cell-based", "conditions": "peptide GRP; IP3 or Ca2+ levels induced by GRP in H1299 cells", "method": "This cell line was obtained from ATCC and cultured as the other cell lines. The signal transduction pathway for GRP includes elevation of intracellular levels of IP3 and Ca^2+ and these were investigated as previously shown (Ryan et al. (1998) J. Biol. Chem., 273, 13613-13624). Briefly, to quantify IP3, contents cells were subcultured into 24-well plates (5×10^4 cells/well). After a 24 h incubation period at 37° C., the cells were incubated with 3 μCi/ml myo-[^3H]inositol in growth medium supplemented with 2% FBS for an additional 24 h. Incubation volumes were 500 μl of assay buffer/well containing 135 mM sodium chloride, 20 mM HEPES (pH 7.4), 2 mM calcium chloride, 1.2 mM magnesium sulfate, 1 mM EGTA, 20 mM lithium chloride, 11.1 mM glucose, and 0.05% BSA (v/v) with or without any of the molecules studied at 37° C. for 30 min. Experiments were terminated with 1 ml of ice-cold hydrochloric acid/methanol (0.1%, v/v). [^3H]IP3 was eluted off Dowex AG-1-X8 anion exchange columns with 2 ml of 1 mM ammonium formate and 100 mM formic acid. Each of the eluates was collected and mixed with 10 ml of scintillation mixture (BioSafe, Research Products International Corp, Mount Prospect, Ill.), and the radioactivity was measured in a LS 3801 β counter (Beckman, Somerset, N.J.)."}, "[1]": {"system": "Bovine retinal microvascular endothelial cells", "assay": "Cord formation assay in Matrigel", "type": "cell-based", "method": "Formation of tube-like structures was performed as described in Kubota et al. (1988) J. Cell Biol. 107, 1589-1598; Nam et al. (2003) Phytother. Res. 17, 107-111; and Macpherson et al. (2003) Mol Cancer Ther 2, 845-54. Briefly, a thin layer of Matrigel (Collaborative Biomedical Products, Bedford, Mass.) was allowed to polymerize at the bottom of 24-well plates. […] After an overnight incubation at 37° C., the tubular structures were photographed (3 pictures per well at 10×) and the number of knots per photographic field were counted as a measure of lattice complexity."}, "cell line A345": {"system": "cell line A345", "assay": "Clonogenic assay in soft agar", "type": "cell-based", "conditions": "A345, 3 weeks", "method": "B. Cells from the cell line […] were grown in substrate-independent conditions (clonogenic assay) as previously published (Iwai et al., supra)."}, "[2]": {"system": "lung cancer cell line H1299", "assay": "Proliferation assay (growth inhibition MTT)", "type": "cell-based", "conditions": "H1299, serum-free medium, 5 days", "method": "A. Tumor cells (from a lung cancer cell line, H1299) were seeded in 96-well plates at a density of 2.0×10^5 cells per well in serum-free medium containing different concentrations of the test agent, the small molecule inhibitor compound XV′ (77427). After 5 days in culture, the number of viable cells per well was estimated by the growth inhibition MTT assay (as reported in Iwai et al. (1999) Lung Cancer 23, 209-22)."}, "H1299 xenograft": {"system": "H1299 xenograft", "assay": "In vivo tumor growth (xenograft experiment)", "parameters": "species or system mice", "method": "Thirty female athymic nude mice from the NIH colony in Frederick (MD) were injected subcutaneously with 1.0×10^7 H1299 cells/mouse. Two weeks later, all the mice had developed palpable tumors under the skin and at this time they were randomly divided in three groups. Three times a week, each individual tumor was measured (length, height, thickness) and every mouse received an intratumoral injection, according to their group. Group 1 (control) received 100 μl PBS (negative control); group 2 received 100 μl 0.5 μM compound XV′ (77427) in PBS; and group 3 received 100 μl 5 μM compound XV′ (77427) in PBS. When the tumor burden became unbearable (larger than 2000 mm^3), the mice were sacrificed."}, "GRP-induced angiogenesis": {"system": "GRP-induced angiogenesis", "assay": "Directed in vivo angiogenesis assay (DIVAA)", "parameters": "species or system mice", "conditions": "1 nM GRP in angioreactors, nude mice, 11 days", "method": "Analysis and quantitation of angiogenesis was done using DIVAA as previously described (Martinez et al. (2002) J Natl Cancer Inst 94, 1226-37). Briefly, 10 mm long surgical-grade silicone tubes with only one end open (angioreactors) were filled with 20 μl of matrigel alone or mixed with GRP and the small molecules at the indicated concentrations. After the matrigel solidified, the angioreactors were implanted into the dorsal flanks of athymic nude mice (NCI colony). After 11 days, the mice were injected iv with 25 mg/ml FITC-dextran (100 μl/mouse, Sigma) 20 min before removing angioreactors. Quantitation of neovascularization in the angioreactors was determined as the amount of fluorescence trapped in the implants and was measured in a HP Spectrophotometer (Perkin Elmer)."}}, "note": "“Also recorded” adds a separate entry of the source."}
{"smiles": "Nc1nc(Cl)cc(NCCO)n1", "note": "[compound 77427]", "values": [{"measurement": "Action on second messengers", "setting": "GRP", "result": "Antagonists"}, {"measurement": "number of knots per photographic field", "setting": "[1]; 5 nM GRP and 0.5 μM compound added together", "result": "12±4"}, {"measurement": "complexity of the tubular lattice", "setting": "[1]; 5 nM GRP plus 0.5 μM compound", "result": "marked decrease; also recorded: reduces network complexity; also recorded: greatly reduced"}, {"measurement": "Biological activity (cord formation)", "setting": "[1]; GRP-induced cord formation", "result": "Inhibits cord"}, {"measurement": "number of colonies in soft agar", "setting": "cell line A345", "result": "reduces the number of colonies"}, {"measurement": "growth inhibitory action on lung cancer cells (MTT)", "setting": "[2]", "result": "modest dose-dependent growth inhibitory action"}, {"measurement": "tumor size", "setting": "H1299 xenograft; after a single intratumoral injection", "result": "significantly reduced"}, {"measurement": "tumor size", "setting": "H1299 xenograft; after the second intratumoral injection", "result": "all but disappeared"}, {"measurement": "inhibition of GRP-induced angiogenesis", "setting": "GRP-induced angiogenesis", "result": "dose-dependent inhibition"}, {"measurement": "inhibition of GRP-induced angiogenesis", "setting": "GRP-induced angiogenesis; listed as XV′", "result": "inhibited"}]}
